Molecules are shown by their SMILES. Where two headings read alike, the source gives them in different places.

For this test, the system named is FADD-deficient Jurkat cells. The experiment in a line: necroptosis assay: FADD-deficient Jurkat cells treated with TNFα, cell viability. In kind it is cell-based, human. Particulars: for EC50: effective concentration for half-maximum response, inhibition of necroptosis in FADD-deficient Jurkat cells treated with TNFα; for activity in the necroptosis assay, in words / Max Prot: FADD-deficient Jurkat cells treated with TNFα; for Max Prot: max viability obtained in the presence of a compound; call rule not given here. From the text:
Herein we describe the structure activity analysis of Nec-5 analogs.

As usually defined, the EC50 is the concentration that produces a half-maximal response. On to `CCc1sc2nc(SC)n(-c3ccc(OC)cc3)c(=O)c2c1C` [Compound 83], for which the EC50 result is “inactive”.

As to `CCCc1sc2nc(SC)n(-c3ccc(OC)cc3)c(=O)c2c1C` [Compound 84], the EC50 result is “inactive”.

As for `COc1ccc(-n2c(SC)nc3sc(C(C)C)c(C)c3c2=O)cc1` [Compound 85], the EC50 result is “inactive”.

Consider `CCCCCCCCCCCCCCc1sc2nc(SC)n(-c3ccc(OC)cc3)c(=O)c2c1C` [Compound 86], for which the concentration giving a half-maximal response (EC50) entry is “inactive”.

In the case of `COc1ccc(-n2c(SC)nc3sc4c(c3c2=O)CCC4)cc1` [Compound 87], the “activity in the necroptosis assay, in words” value (shortened to “activity … in words”) is given as “displayed higher activity than each change separately enacted” and the “Max Prot” value amounted to 97.0%. Further, the EC50 (read-out: EC50) turned out to be 0.24 µM.

Turning to `COc1ccc(-n2c(SC)nc3sc4c(c3c2=O)CCCCC4)cc1` [Compound 88], the “activity … in words” value is given as “lack of activity” and the EC50 entry was “inactive”.

For the molecule `COc1ccc(-n2c(SC)nc3sc4ccccc4c3c2=O)cc1` [Compound 90], the “activity … in words” value is “potent inhibitor” and the “Max Prot” value is recorded as 77%. Further, the EC50 (read-out: EC50) worked out at 0.24 µM.

Turning to `CCN1CCc2c(sc3nc(SC)n(-c4ccc(OC)cc4)c(=O)c23)C1` [Compound 91], the half-maximal effective concentration (EC50) result was “inactive”.

Consider `COc1ccc(-n2c(SC)nc3sc4c(c3c2=O)CCN(C(C)C)C4)cc1` [Compound 92], for which the EC50 result is “inactive”.

On to `CCSc1nc2sc3c(c2c(=O)n1-c1ccc(OC)cc1)CCC3` [Compound 93], for which the half-maximal effective concentration (EC50) entry is “inactive”.

For the molecule `CCCSc1nc2sc3c(c2c(=O)n1-c1ccc(OC)cc1)CCC3` [Compound 94], the EC50 entry was “inactive”.

As to `CCCCSc1nc2sc3c(c2c(=O)n1-c1ccc(OC)cc1)CCC3` [Compound 95], the EC50 result was “inactive”.

With `CCCCCSc1nc2sc3c(c2c(=O)n1-c1ccc(OC)cc1)CCC3` [Compound 96], the EC50 entry is “inactive”.

On to `C=CCSc1nc2sc3c(c2c(=O)n1-c1ccc(OC)cc1)CCC3` [Compound 97], for which the concentration for a half-maximal effect (EC50) entry is “inactive”.

As to `C#CCSc1nc2sc3c(c2c(=O)n1-c1ccc(OC)cc1)CCC3` [Compound 98], the “Max Prot” value is on record as 63.4%. Where the note is “read-out: EC50”, the EC50 was 2.49 µM.

On to `COc1ccc(-n2c(SCc3ccccc3)nc3sc4c(c3c2=O)CCC4)cc1` [Compound 99], for which the concentration giving a half-maximal response (EC50) entry is “inactive”.

As for `COc1ccc(-n2c(SCc3ccc([N+](=O)[O-])cc3)nc3sc4c(c3c2=O)CCC4)cc1` [Compound 100], the concentration for a half-maximal effect (EC50) entry is “inactive”.

For the molecule `COc1ccc(-n2c(SCC(C)=O)nc3sc4c(c3c2=O)CCC4)cc1` [Compound 101], the EC50 result is “inactive”.

For `COc1ccc(-n2c(SC[N+](=O)[O-])nc3sc4c(c3c2=O)CCC4)cc1` [Compound 102], the concentration giving a half-maximal response (EC50) result is “inactive”.

As to `COc1ccc(-n2c(SCCO)nc3sc4c(c3c2=O)CCC4)cc1` [Compound 103], the “Max Prot” value was 100%. Under “read-out: EC50”, the EC50 is 7.14 µM.

Turning to `C#CCSc1nc2sccc2c(=O)n1-c1ccc(OC)cc1` [Compound 104], the 50% effective concentration (EC50) result is “inactive”.

Turning to `C#CCSc1nc2scc(C)c2c(=O)n1-c1ccc(OC)cc1` [Compound 105], the EC50 entry was “inactive”.

For the molecule `C#CCSc1nc2sc(C)c(C)c2c(=O)n1-c1ccc(OC)cc1` [Compound 106], the “activity … in words” value was “possess some activity” and the “Max Prot” value is 90.3%. Moreover, the EC50 (read-out: EC50) worked out at 4.86 µM.

As for `C#CCSc1nc2sc(CC)c(C)c2c(=O)n1-c1ccc(OC)cc1` [Compound 107], the EC50 entry is “inactive”.

`C#CCSc1nc2sc(CCC)c(C)c2c(=O)n1-c1ccc(OC)cc1` [Compound 108]: the EC50 entry is “inactive”.

Turning to `C#CCSc1nc2sc3c(c2c(=O)n1-c1ccc(OC)cc1)CCCCC3` [Compound 109], the concentration giving a half-maximal response (EC50) result is “inactive”.

`CCSc1nc2sc(C)c(C)c2c(=O)n1-c1ccc(OC)cc1` [Compound 110]: the “activity … in words” value is “inactive” and the half-maximal effective concentration (EC50) result is “inactive”.

On to `CCSc1nc2sc(CC)c(C)c2c(=O)n1-c1ccc(OC)cc1` [Compound 111], for which the 50% effective concentration (EC50) entry is “inactive”.

Consider `CCSc1nc2sc3c(c2c(=O)n1-c1ccc(OC)cc1)CCCCC3` [Compound 112], for which the EC50 result is “inactive”.

Regarding `COc1ccc(-n2c(SCCC#N)nc3sc(C)c(C)c3c2=O)cc1` [Compound 113], the concentration for a half-maximal effect (EC50) entry is “inactive”.

Consider `COc1ccc(-n2c(SCCO)nc3sc(C)c(C)c3c2=O)cc1` [Compound 114], for which the “activity … in words” value is listed as “possess some activity” and the “Max Prot” value is listed as 78%. Further, the EC50 (read-out: EC50) was determined as 7.26 µM.

On to `CCc1sc2nc(SCCO)n(-c3ccc(OC)cc3)c(=O)c2c1C` [Compound 115], for which the EC50 result is “inactive”.

As to `CCCc1sc2nc(SCCO)n(-c3ccc(OC)cc3)c(=O)c2c1C` [Compound 116], the EC50 entry is “inactive”.

In the case of `CCCc1sc2nc(SCC)n(-c3ccc(OC)cc3)c(=O)c2c1C` [Compound 117], the EC50 result is “inactive”.

For the molecule `COc1ccc(-n2c(SCC(=O)O)nc3sc(C)c(C)c3c2=O)cc1` [Compound 118], the EC50 entry is “inactive”.

For the molecule `Cc1sc2nc(SCC#N)n(-c3ccc(F)cc3)c(=O)c2c1C` [Compound 119], the “Max Prot” value is 87.6%. Moreover, the EC50 (read-out: EC50) amounted to 4.43 µM.

For `CCc1sc2nc(SCC#N)n(-c3ccc(F)cc3)c(=O)c2c1C` [Compound 120], the concentration for a half-maximal effect (EC50) result is “inactive”.

For the molecule `N#CCSc1nc2sc3c(c2c(=O)n1-c1ccc(F)cc1)CCC3` [Compound 121], the “Max Prot” value came to 88.7%. Where the note is “read-out: EC50”, the EC50 came out at 0.89 µM.

As to `N#CCSc1nc2sc3c(c2c(=O)n1-c1ccc(F)cc1)CCCCC3` [Compound 122], the “activity … in words” value was “completely lacked activity” and the EC50 result is “inactive”.

For the molecule `CSc1nc2sc(C)c(C)c2c(=O)n1-c1ccc(F)cc1` [Compound 123], the “Max Prot” value worked out at 69.2%. Also, the EC50 (read-out: EC50) came out at 2.6 µM.

On to `CCc1sc2nc(SC)n(-c3ccc(F)cc3)c(=O)c2c1C` [Compound 124], for which the half-maximal effective concentration (EC50) entry was “inactive”.

`CSc1nc2sc3c(c2c(=O)n1-c1ccc(F)cc1)CCC3` [Compound 125]: the “Max Prot” value was determined as 95%. In addition, the 50% effective concentration (EC50) (read-out: EC50) is 3 µM.

As to `Cc1sc2nc(SCC#N)n(-c3ccc4c(c3)OCO4)c(=O)c2c1C` [Compound 127], the “Max Prot” value was 100%. Further, the EC50 (read-out: EC50) was found to be 1.65 µM.

As for `CCc1c(C)sc2nc(SCC#N)n(-c3ccc4c(c3)OCO4)c(=O)c12` [Compound 128], the “Max Prot” value is on record as 100%. The EC50 (read-out: EC50) turned out to be 1.9 µM.

Regarding `N#CCSc1nc2sc3c(c2c(=O)n1-c1ccc2c(c1)OCO2)CCC3` [Compound 129], the “Max Prot” value is listed as 100%. The concentration giving a half-maximal response (EC50) (read-out: EC50) stood at 1.18 µM.

Regarding `CSc1nc2sc(C)c(C)c2c(=O)n1-c1ccc2c(c1)OCO2` [Compound 130], the “Max Prot” value is given as 67.0%. Further, under “read-out: EC50”, the EC50 is 1.11 µM.

Consider `CCc1c(C)sc2nc(SC)n(-c3ccc4c(c3)OCO4)c(=O)c12` [Compound 131], for which the “activity … in words” value is “inactive” and the concentration for a half-maximal effect (EC50) result was “inactive”.

On to `CSc1nc2sc3c(c2c(=O)n1-c1ccc2c(c1)OCO2)CCC3` [Compound 132], for which the “activity … in words” value was “inactive” and the concentration giving a half-maximal response (EC50) result was “inactive”.

With `N#CCSc1nc2sc3c(c2c(=O)n1-c1ccc2c(c1)OCCO2)CCC3` [Compound 133], the “Max Prot” value turned out to be 100%. Moreover, the EC50 (read-out: EC50) is 0.25 µM.

Turning to `N#CCSc1nc2sc3c(c2c(=O)n1-c1ccc2c(c1)OCCO2)CCCC3` [Compound 134], the “Max Prot” value is recorded as 100%. Also, the concentration for a half-maximal effect (EC50) (read-out: EC50) came to 0.22 µM.

Consider `N#CCSc1nc2sc3ccccc3c2c(=O)n1-c1ccc2c(c1)OCCO2` [Compound 135], for which the “Max Prot” value stood at 100%. In addition, the “increase in activity versus para-methoxy” value (R5 ethylene dioxy compared with para-methoxy) is recorded as approximately 2 fold. For the same molecule, the 50% effective concentration (EC50) (read-out: EC50) stood at 0.15 µM.

Consider `Cc1sc2nc(SCC#N)n(-c3ccc4c(c3)OCCO4)c(=O)c2c1C` [Compound 136], for which the “Max Prot” value was determined as 100%. In addition, the EC50 (read-out: EC50) came out at 0.25 µM.

On to `Cc1ccc(-n2c(SCC#N)nc3sc(C)c(C)c3c2=O)cc1C` [Compound 137], for which the “activity … in words” value is listed as “showed higher activity than compound (43)” and the “Max Prot” value came to 90.7%. In addition, the concentration for a half-maximal effect (EC50) (read-out: EC50) was 2.79 µM.

`Cc1ccc(-n2c(SCC#N)nc3sc4c(c3c2=O)CCC4)cc1C` [Compound 139]: the “activity … in words” value was “essentially inactive” and the concentration giving a half-maximal response (EC50) result is “inactive”.

Take `CSc1nc2sc(C)c(C)c2c(=O)n1-c1ccc(C)c(C)c1` [Compound 140]: the half-maximal effective concentration (EC50) entry is “inactive”.

Regarding `CSc1nc2sc3c(c2c(=O)n1-c1ccc(C)c(C)c1)CCC3` [Compound 142], the EC50 entry is “inactive”.

On to `N#CCSc1nc2sc3ccccc3c2c(=O)n1-c1ccc(F)cc1` [Compound 144], for which the EC50 (read-out: EC50) is 3.06 µM.

In the case of `CCOc1ccc(-n2c(SCC#N)nc3sc4ccccc4c3c2=O)cc1` [Compound 145], the concentration for a half-maximal effect (EC50) result was “inactive”.

Turning to `N#CCSc1nc2sc3ccccc3c2c(=O)n1-c1ccc2c(c1)OCO2` [Compound 146], the “activity … in words” value is “potent inhibitor” and the “Max Prot” value amounted to 100%. The concentration for a half-maximal effect (EC50) (read-out: EC50) came out at 0.27 µM.

With `N#CCSc1nc2sc3ccccc3c2c(=O)n1-c1ccc(OC(F)(F)F)cc1` [Compound 147], the concentration for a half-maximal effect (EC50) result is “inactive”.

Regarding `CN(C)c1ccc(-n2c(SCC#N)nc3sc4ccccc4c3c2=O)cc1` [Compound 148], the EC50 result was “inactive” and the “Max Prot” value was “inactive”.

On to `CSc1nc2sc3ccccc3c2c(=O)n1-c1ccc(F)cc1` [Compound 150], for which the 50% effective concentration (EC50) (read-out: EC50) is 3.06 µM.

For the molecule `CCOc1ccc(-n2c(SC)nc3sc4ccccc4c3c2=O)cc1` [Compound 151], the half-maximal effective concentration (EC50) result was “inactive”.

The values above are taken from US20140024662A1, “COMPOUNDS, SCREENS, AND METHODS OF TREATMENT” (Shanghai Institute of Organic Chemistry, priority 2006, published 2014).
